Test results taken from ChEMBL document CHEMBL3045904, “Synthesis, AM1 calculation, and biological studies of thiopyran-4-one and their azine derivatives” (2007).
Converted amounts (≈) assume the structure as drawn. The source made the active and inactive calls. The rule behind the calls is not given here.

How the values were obtained:
Assay type in all cases: functional
[1] = test system: Aspergillus flavus; assay: Antifungal activity against Aspergillus flavus after 72 to 96 hr by two-fold serial dilution method
[2] = test system: Candida; assay: Antifungal activity against Candida-51 after 72 to 96 hr by two-fold serial dilution method
[3] = test system: Candida; assay: Antifungal activity against Candida-6 after 72 to 96 hr by two-fold serial dilution method
[4] = test system: Aspergillus niger; assay: Antifungal activity against Aspergillus niger after 72 to 96 hr by two-fold serial dilution method
[5] = test system: Pseudomonas aeruginosa; assay: Antibacterial activity against Pseudomonas aeruginosa after 24 hr by twofold serial dilution method
[6] = test system: Staphylococcus aureus; assay: Antibacterial activity against Staphylococcus aureus after 24 hr by two-fold serial dilution method
[7] = test system: Bacillus subtilis; assay: Antibacterial activity against Bacillus subtilis after 24 hr by two-fold serial dilution method
[8] = test system: Enterococcus faecalis; assay: Antibacterial activity against Enterococcus faecalis after 24 hr by two-fold serial dilution method
[9] = test system: Escherichia coli; assay: Antibacterial activity against Escherichia coli after 24 hr by two-fold serial dilution method

SMILES	MIC [1]	MIC [2]	MIC [3]	MIC [4]	MIC [5]	MIC [6]	MIC [7]	MIC [8]	MIC [9]
C[C@@H]1[C@H](O)[C@@H](C)/C=C/C=C/C=C/C=C/C=C/C=C/C=C/[C@H](O[C@@H]2O[C@H](C)[C@@H](O)[C@H](N)[C@@H]2O)C[C@@H]2O[C@](O)(C[C@@H](O)C[C@@H](O)[C@H](O)CC[C@@H](O)C[C@@H](O)CC(=O)O[C@H]1C)C[C@H](O)[C@H]2C(=O)O [AMPHOTERICIN B]	50 µg/mL (≈ 54.1 µM)	25 µg/mL (≈ 27.1 µM)	25 µg/mL (≈ 27.1 µM)	50 µg/mL (≈ 54.1 µM)	–	–	–	–	–
CN[C@@H]1[C@H](O[C@H]2[C@H](O[C@H]3[C@H](O)[C@@H](O)[C@H](N=C(N)N)[C@@H](O)[C@@H]3N=C(N)N)O[C@@H](C)[C@]2(O)C=O)O[C@@H](CO)[C@H](O)[C@H]1O [STREPTOMYCIN]	–	–	–	–	25 µg/mL (≈ 43 µM)	25 µg/mL (≈ 43 µM)	12.5 µg/mL (≈ 21.5 µM)	50 µg/mL (≈ 86 µM)	12.5 µg/mL (≈ 21.5 µM)
COc1ccc(/C=N/N=C2\C[C@@H](c3ccccc3)S[C@@H](c3ccccc3)C2)cc1 (relative stereo)	100 µg/mL (≈ 250 µM)	12.5 µg/mL (≈ 31.2 µM)	12.5 µg/mL (≈ 31.2 µM)	50 µg/mL (≈ 125 µM)	50 µg/mL (≈ 125 µM)	25 µg/mL (≈ 62.4 µM)	6.25 µg/mL (≈ 15.6 µM)	25 µg/mL (≈ 62.4 µM)	12.5 µg/mL (≈ 31.2 µM)
c1ccc([C@@H]2C/C(=N\N=C3/C[C@@H](c4ccccc4)S[C@@H](c4ccccc4)C3)C[C@H](c3ccccc3)S2)cc1	100 µg/mL (≈ 188 µM)	50 µg/mL (≈ 93.8 µM)	100 µg/mL (≈ 188 µM)	50 µg/mL (≈ 93.8 µM)	50 µg/mL (≈ 93.8 µM)	25 µg/mL (≈ 46.9 µM)	50 µg/mL (≈ 93.8 µM)	100 µg/mL (≈ 188 µM)	100 µg/mL (≈ 188 µM)

More lines, now with the values ahead:

MIC [1]	MIC [2]	MIC [3]	MIC [4]	MIC [5]	MIC [6]	MIC [7]	MIC [8]	MIC [9]	SMILES
100 µg/mL (≈ 353 µM)	inactive	100 µg/mL (≈ 353 µM)	inactive	inactive	100 µg/mL (≈ 353 µM)	100 µg/mL (≈ 353 µM)	inactive	inactive	O/N=C1\C[C@@H](c2ccccc2)S[C@@H](c2ccccc2)C1
100 µg/mL (≈ 354 µM)	100 µg/mL (≈ 354 µM)	50 µg/mL (≈ 177 µM)	100 µg/mL (≈ 354 µM)	100 µg/mL (≈ 354 µM)	100 µg/mL (≈ 354 µM)	100 µg/mL (≈ 354 µM)	100 µg/mL (≈ 354 µM)	50 µg/mL (≈ 177 µM)	N/N=C1\C[C@@H](c2ccccc2)S[C@@H](c2ccccc2)C1 (relative stereo)
50 µg/mL (≈ 129 µM)	12.5 µg/mL (≈ 32.3 µM)	12.5 µg/mL (≈ 32.3 µM)	25 µg/mL (≈ 64.7 µM)	25 µg/mL (≈ 64.7 µM)	25 µg/mL (≈ 64.7 µM)	6.25 µg/mL (≈ 16.2 µM)	25 µg/mL (≈ 64.7 µM)	12.5 µg/mL (≈ 32.3 µM)	Oc1ccccc1/C=N/N=C1\C[C@@H](c2ccccc2)S[C@@H](c2ccccc2)C1 (relative stereo)
100 µg/mL (≈ 241 µM)	25 µg/mL (≈ 60.2 µM)	50 µg/mL (≈ 120 µM)	100 µg/mL (≈ 241 µM)	50 µg/mL (≈ 120 µM)	25 µg/mL (≈ 60.2 µM)	25 µg/mL (≈ 60.2 µM)	50 µg/mL (≈ 120 µM)	100 µg/mL (≈ 241 µM)	O=[N+]([O-])c1ccccc1/C=N/N=C1\C[C@@H](c2ccccc2)S[C@@H](c2ccccc2)C1 (relative stereo)
100 µg/mL (≈ 373 µM)	inactive	100 µg/mL (≈ 373 µM)	inactive	inactive	100 µg/mL (≈ 373 µM)	100 µg/mL (≈ 373 µM)	inactive	inactive	O=C1C[C@@H](c2ccccc2)S[C@@H](c2ccccc2)C1
